# Measurements from patent publication US20210322404A1, “FGFR REGULATION FOR THE TREATMENT OF VIRAL INFECTIONS” (ETH ZURICH, priority 2016, published 2021).
# “Also recorded” adds a separate entry of the source.
# B1: FGF10: recombinant human FGF10, activates FGFR2b and FGFR1b (protein, UniProt O15520 38-208, looked up)
# Fibroblast growth factor 10: QALGQDMVSPEATNSSSSSFSSPSSAGRHVRSYNHLQGDVRWRKLFSFTKYFLKIEKNGKVSGTKKENCPYSILEITSVEIGVVAVKAINSNYYLAMNKKGKLYGSKEFNNDCKLKERIEENGYNTYASFNWQHNGRQMYVALNGKGAPRRGQKTRRKNTSAHFLPMVVHS
# Columns and labels:
# [1] = test system: interferon-stimulated genes (ISGs); test: ISG expression in primary mouse keratinocytes pre-incubated with inhibitors, then treated with FGF7 (qRT-PCR); assay type: cell-based; conditions: primary keratinocytes from wild-type mice; inhibitor 3 h (SB203580 5 μM, NSC23766 50 μM, AZD4547 1 μM), then FGF7 10 ng/ml 6 h
# HSV-1 = HSV-1 infection of HaCaT cells, virus load; assay type: cell-based, Herpes Simplex Virus type 1; conditions: HaCaT; for amount and size of Glyc-D-positive fused cells (immunofluorescence): HSV-1; for amount and size of Glyc-D-positive fused cells (immunofluorescence) / Glyc-B DNA levels (viral load, qPCR relative to human β-actin gene): NSC23766 20 μM, AZD4547 1 μM; for Glyc-B DNA levels (viral load, qPCR relative to human β-actin gene): HSV-1 MOI=0.5, +/- FGF7 10 ng/ml, BGJ398 3.5 μM
# Protocol: FIGS. 5A-C relate to HaCaT cells infected with HSV-1 (MOI=0.5) after overnight serum starvation, either alone or in combination with FGF7 (10 ng/ml) or IFNα (1000U/ml). 24 h after infection, virus load was determined by qPCR for the HSV-1 Glycoprotein B (Glyc-B) gene relative to the human β-actin gene (A) or visualized by immunofluorescence staining for HSV-1 Glycoprotein D (Glyc-D) (red) (B). The Glyc-B/β-actin gene ratio in HSV-1 infected cells was set to 1. Cell nuclei were stained with DAPI (blue). Magnification bar: 200 μm. (C) Transmission microscopy images of HaCaT cells taken 48 h after HSV-1 infection. […] Magnification bar: 80 μm. Representative data out of four experiments are shown.
# FIGS. 5 D & E relate to overnight-starved HaCaT cells infected with HSV-1 (MOI=0.5) alone or in combination with IFNα (1000 U/ml), IFNα and FGF7 (10 ng/ml) (D); or FGF7 at different concentrations (E).
# FIG. 5F pertains to serum-starved HaCaT cells that were infected with HSV-1 (MOI 0.5-1). After 4 h, infected cells were washed with PBS, followed by addition of fresh serum-free culture medium containing FGF7 (10 ng/ml).
# FIGS. 5G-K pertains to overnight-starved HaCaT cells infected with HSV-1 (MOI=0.5) alone or in combination with FGF7, which was added at the indicated time points. 12 h after infection, cells were analyzed for Glyc-B DNA (H) and, RSAD2 and IRF7 mRNA levels by qPCR/qRT-PCR (I) or for ISG protein levels by western blotting (K). Vinculin was used as loading control.
# FIGS. 7A-C relate to serum-starved HaCaT cells that were infected with HSV-1 in the presence or absence of FGF7 (10 ng/ml), NSC23766 (20 μM), the FGFR kinase inhibitors AZD4547 (1 μM) and BGJ398 (3.5 μM) (A) or IFNα (1000 U/ml) (B). […] Magnification bar: 500 μm. The Glyc-D positive area was quantified using digital pixel measurements (C, right). A representative out of two experiments is shown.
# Frozen sections from mouse back skin were fixed with cold methanol, and unspecific binding sites were blocked with PBS/2% bovine serum albumin (BSA) (Sigma)/1% fish skin gelatin (Sigma)/0.05% Triton X-100 (Carl Roth GmbH, Karlsruhe, Germany) for 2 h at room temperature. Samples were then incubated overnight at 4° C. with anti-IRF7 or anti-K14 antibodies diluted in the same buffer. After three washes with 1×PBS/0.1% Tween 20 (Carl Roth GmbH), slides were incubated at room temperature (RT) for 4 h with secondary antibodies (AF555-conjugated anti-rabbit IgG and AF488-conjugated anti-mouse IgG) and DAPI (4′,6-diamidino-2-phenylindole dihydrochloride) (Sigma) as counter-stain, washed again and mounted with Mowiol (Hoechst, Frankfurt, Germany). Stained sections were photographed with a Leica SP1-2 confocal microscope equipped with a 63×0.6-1.32 NA (Iris) PL Apo Oil objective. For data acquisition the Leica Confocal Software (Leica, Wetzlar, Germany) was used. For immunofluorescence staining of cultured cells, they were washed with PBS and either fixed for 5 min with cold methanol for staining with antibodies against ZO-1 and IRF7, or with 4% paraformaldehyde (PFA) (Sigma) for 20 min at RT for Glyc-D staining. PFA-fixed cells were then incubated for 10 min with 0.5% Triton X-100 in PBS. After 1 h blocking in PBS containing 2% BSA, cells were stained with the primary antibodies for 1 h in the same blocking buffer. After three washes with PBS, cells were incubated with the secondary antibodies (AF555-conjugated anti-mouse IgG, AF488-conjugated anti-mouse IgG and AF555-conjugated anti-rabbit IgG) and DAPI.
# HCV = conditions: hepatic / hepatoma cells, Van et al.; cited from earlier work
# [2] = test system: interferon-stimulated response element (ISRE); test: ISRE luciferase reporter assay in immortalized mouse keratinocytes; assay type: cell-based; conditions: FGF7 10 ng/ml and/or IFNα 1000 U/ml, 12 h
# Protocol: FIG. 3C pertains to immortalized mouse keratinocytes that were co-transfected with TK-Renilla and pGL4.45[luc2P/ISRE/Hygro] plasmids, starved in serum-free medium and then treated with FGF7 (10 ng/ml) and/or IFNα (1000 U/ml) for 12 h. Firefly luciferase activity was determined in cell lysates and normalized to Renilla luciferase activity (transfection control). The mean value in vehicle-treated cells (CTRL) was set to 1.
# Mouse keratinocytes and HEK 293 cells were transfected with the expression vector for TK-Renilla and the expression vector pGL4.45[luc2P/ISRE/Hygro] (Promega). The latter contains five copies of an ISRE that drives expression of the luciferase reporter gene. Cells were seeded into 12-well plates, cultured for 24 h, and transfected using Lipofectamine 2000 […]. They were then starved in serum-free medium, treated with FGF7 (10 ng/ml) and/or IFNα (1000 U/ml) for 12 h, lysed and analyzed using a dual-luciferase assay system (Promega) as described by the manufacturer. Relative light units were measured in a GloMax 96 microplate luminometer with dual injectors (Promega).
# LCMV = assay type: cell-based, Lymphocytic Choriomeningitis Virus; conditions: HaCaT, LCMV MOI 0.05 or 0.2
# [3] = test system: interferon-stimulated genes (ISGs); test: ISG expression in human keratinocytes (HaCaT, primary foreskin) treated with FGF7, FGF10 and/or IFNα (qRT-PCR); assay type: cell-based; conditions: HaCaT, 10 ng/ml, 6 h
# Protocol: FIG. 2F relates to serum-starved immortalized human keratinocytes (HaCaT cell line) that were treated for 6 h with FGF7, FGF10 (both 10 ng/ml) or vehicle (CTRL). RNA was analyzed by qRT-PCR for the expression of the indicated ISGs relative to RPLP0. Mean expression levels in CTRL cells were set to 1. Representative data from three experiments are shown. Scatter plot and mean values are shown in (A-D). Each dot represents a biological replicate.
# FIGS. 3E and F pertain to confluent human primary foreskin keratinocytes and (E) or HaCaT cells (F) that were serum-starved for 24 h and treated with FGF7 (10 ng/ml) and/or IFNα (500 U/ml) for 16 h. Cells were analyzed for ISG mRNA levels by qRT-PCR relative to RPLP0. Mean expression levels in vehicle-treated (CTRL) cells were set to 1.
# The human HaCaT keratinocyte cell line was cultured in DMEM (Sigma) supplemented with 10% FCS (Thermo Fisher). […]
# Total RNA from isolated epidermis of mice or from total skin was purified with Trizol, followed by additional purification with the RNeasy Mini Kit, including on-column DNase treatment (Qiagen, Hilden, Germany). […] Relative gene expression was determined using the Roche LightCycler 480 SYBR Green system (Roche, Rotkreuz, Switzerland).
molecule,measurement,setting,value
"CCN(CC)CCCC(C)Nc1nc(C)cc(Nc2ccc3nc(C)cc(N)c3c2)n1 (racemic) [NSC23766, 6-N-[2-[5-(diethylamino)pentan-2-ylamino]-6-methylpyrimidin-4-yl]-2-methylquinoline-4,6-diamine, reference compound]",FGF7-mediated ISG downregulation (ISG mRNA relative to Rps29),[1],partially or even completely rescued the FGF7-mediated ISG downregulation
same,amount and size of Glyc-D-positive fused cells (immunofluorescence),HSV-1,strongly reduced the amount of Glyc-D-positive fused cells
same,"Glyc-B DNA levels (viral load, qPCR relative to human β-actin gene)",HSV-1,strongly reduced
"COc1cc(CCc2cc(NC(=O)c3ccc(N4C[C@@H](C)N[C@@H](C)C4)cc3)n[nH]2)cc(OC)c1 [AZD4547, N-[5-[2-(3,5-dimethoxyphenyl)ethyl]-1H-pyrazol-3-yl]-4-[(3R,5S)-3,5-dimethylpiperazin-1-yl]benzamide, reference compound]",FGF7-mediated ISG downregulation (ISG mRNA relative to Rps29),[1],The same effect was observed
same,amount and size of Glyc-D-positive fused cells (immunofluorescence),HSV-1,strongly reduced the amount of Glyc-D-positive fused cells
same,"Glyc-B DNA levels (viral load, qPCR relative to human β-actin gene)",HSV-1,inhibited the positive effect of FGF7 on viral replication
"CCN1CCN(c2ccc(Nc3cc(N(C)C(=O)Nc4c(Cl)c(OC)cc(OC)c4Cl)ncn3)cc2)CC1 [BGJ398, 3-(2,6-dichloro-3,5-dimethoxyphenyl)-1-[6-[4-(4-ethylpiperazin-1-yl)anilino]pyrimidin-4-yl]-1-methylurea, reference compound]","Glyc-B DNA levels (viral load, qPCR relative to human β-actin gene)",HSV-1,inhibited the positive effect of FGF7 on viral replication
FGF1: member of the FGF family that binds to all FGFRs,HCV replication,HCV,does not enhance HCV replication
FGF2: fibroblast growth factor-2,HCV replication,HCV,"promoted hepatitis C RNA replication and production of novel particles; also recorded: enhanced viral replication and new particle production, but not infection with the virus"
IFNα,appearance of HSV-1 infected cells (transmission microscopy),HSV-1; 48 h after infection,almost indistinguishable from non-infected cells
same,viral glycoprotein B (Glyc-B) DNA,"HSV-1; HSV-1 MOI=0.5, FGF7 10 ng/ml or IFNα 1000 U/ml",had the opposite effect
same,ISRE-driven luciferase activity,[2],significant increase in luciferase activity
same,expression levels of LCMV nucleoprotein (NP) / viral replication,LCMV,blocked the viral replication
B1,ISG expression (qRT-PCR relative to RPLP0),[3],suppressed ISG expression to a similar extent as FGF7
